In patent US20240124504A1, “AROMATIC HETEROCYCLIC COMPOUND, AND PHARMACEUTICAL COMPOSITION AND APPLICATION THEREOF” (GT APEIRON THERAPEUTICS LIMITED, priority 2020, published 2024):

Legend:
[1] = biological target: CDK7/cyclinH/MAT1 complex (Homo sapiens, UniProt P50613); assay: In-vitro enzymatic inhibitory activity testing, CDK7 inhibition assay (Caliper EZ Reader II); assay type: biochemical; settings: CDK7/cyclinH/MAT1 6 nM, 180 min at 27° C.
Procedure, shortened: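 Enzyme preincubated 10 min with compound, then peptide substrate plus ATP added in 80 mM MES pH 6.5, 10 mM MgCl2 buffer; 180 min at 27 °C, stopped with EDTA.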

CDK2/cyclinE1 complex = CDK2/cyclinE1 complex (Homo sapiens, UniProt P24941); assay: In-vitro enzymatic inhibitory activity testing, CDK2 inhibition assay (Caliper EZ Reader II); assay type: biochemical; settings: CDK2/cyclinE1 0.5 nM, 180 min at 27° C.
Procedure, shortened: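 CDK2/cyclinE1 (0.5 nM) phosphorylated 5-FAM-CDK7tide (2 μM) in MES buffer pH 6.5 with MgCl2, Tween 20 and BSA. Substrate and product were separated electrophoretically on a Caliper EZ Reader II. IC50 values came from nonlinear dose-response fits.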

CDK9/cyclinT1 complex = CDK9/cyclinT1 complex (Homo sapiens, UniProt P50750); assay: In-vitro enzymatic inhibitory activity testing, CDK9 inhibition assay (Caliper EZ Reader II); assay type: biochemical; settings: CDK9/cyclinT1 8 nM, 180 min at 27° C.
Chain of CDK9/cyclinT1 complex (P50750 whole entry, species assumed): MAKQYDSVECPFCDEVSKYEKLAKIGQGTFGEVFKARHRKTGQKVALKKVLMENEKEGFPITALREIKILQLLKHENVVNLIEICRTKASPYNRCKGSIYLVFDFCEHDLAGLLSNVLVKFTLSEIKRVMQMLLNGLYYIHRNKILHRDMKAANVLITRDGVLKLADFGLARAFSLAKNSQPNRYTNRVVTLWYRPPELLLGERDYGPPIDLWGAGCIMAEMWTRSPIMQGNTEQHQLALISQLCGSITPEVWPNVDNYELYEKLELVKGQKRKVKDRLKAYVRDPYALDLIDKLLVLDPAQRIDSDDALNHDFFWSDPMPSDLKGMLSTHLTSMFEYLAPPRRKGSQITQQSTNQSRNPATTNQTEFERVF
Chain of CDK9/cyclinT1 complex (O60563 whole entry partner, species assumed): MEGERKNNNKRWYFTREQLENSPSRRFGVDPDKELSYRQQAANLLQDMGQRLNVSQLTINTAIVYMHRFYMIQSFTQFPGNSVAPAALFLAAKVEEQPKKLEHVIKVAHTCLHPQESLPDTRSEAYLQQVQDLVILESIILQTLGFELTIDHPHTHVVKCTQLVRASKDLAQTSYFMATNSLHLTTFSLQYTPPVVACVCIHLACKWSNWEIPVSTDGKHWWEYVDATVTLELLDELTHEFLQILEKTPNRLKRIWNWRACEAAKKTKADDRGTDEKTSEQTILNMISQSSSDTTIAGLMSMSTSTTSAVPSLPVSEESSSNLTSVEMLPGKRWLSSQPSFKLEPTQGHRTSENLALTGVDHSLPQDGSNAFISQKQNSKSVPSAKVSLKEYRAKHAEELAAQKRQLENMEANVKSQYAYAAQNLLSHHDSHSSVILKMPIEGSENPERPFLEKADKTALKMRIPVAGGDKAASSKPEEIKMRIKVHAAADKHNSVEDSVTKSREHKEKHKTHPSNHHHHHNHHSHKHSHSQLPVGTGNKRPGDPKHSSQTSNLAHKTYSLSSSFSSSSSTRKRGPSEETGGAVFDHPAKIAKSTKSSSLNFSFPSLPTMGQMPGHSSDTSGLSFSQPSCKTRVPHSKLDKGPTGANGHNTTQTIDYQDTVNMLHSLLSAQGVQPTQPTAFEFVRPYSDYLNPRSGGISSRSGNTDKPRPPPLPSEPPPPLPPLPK
Procedure, shortened: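 Phosphorylated and unphosphorylated fluorescent peptide were resolved by mobility-shift electrophoresis, with IC50 taken from a nonlinear regression of dose-response data. Reactions ran 180 min at 27 °C in MES buffer pH 6.5 with MgCl2, after 10 min enzyme–compound preincubation, using 8 nM CDK9/cyclinT1 and 5-FAM-CDK9tide.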

[2] = biological target: T1, CDK12 (aa686-1082)/cyclinK complex (Homo sapiens, UniProt Q9NYV4); assay: In-vitro enzymatic inhibitory activity testing, CDK12 inhibition assay (Caliper EZ Reader II); assay type: biochemical; settings: CDK12/cyclinK 50 nM, 180 min at 27° C.; read-out: CDK12 IC50
T1 construct: A CDK12 (aa686-1082)/cyclinK complex (50 nM)
T1 sequence (Q9NYV4 686-1082, species assumed): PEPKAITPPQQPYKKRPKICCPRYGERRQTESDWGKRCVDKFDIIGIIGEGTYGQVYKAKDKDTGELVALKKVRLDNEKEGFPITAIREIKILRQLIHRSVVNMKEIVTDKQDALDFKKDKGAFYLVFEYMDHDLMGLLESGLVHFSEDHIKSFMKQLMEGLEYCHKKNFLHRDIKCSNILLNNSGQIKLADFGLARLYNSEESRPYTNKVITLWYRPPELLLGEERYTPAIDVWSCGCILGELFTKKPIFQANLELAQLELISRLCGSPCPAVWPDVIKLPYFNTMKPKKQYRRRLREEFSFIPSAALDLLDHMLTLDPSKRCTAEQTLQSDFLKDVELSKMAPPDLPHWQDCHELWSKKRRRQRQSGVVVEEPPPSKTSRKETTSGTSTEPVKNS
T1 sequence (O75909 whole entry partner, species assumed, the tested form may be a part): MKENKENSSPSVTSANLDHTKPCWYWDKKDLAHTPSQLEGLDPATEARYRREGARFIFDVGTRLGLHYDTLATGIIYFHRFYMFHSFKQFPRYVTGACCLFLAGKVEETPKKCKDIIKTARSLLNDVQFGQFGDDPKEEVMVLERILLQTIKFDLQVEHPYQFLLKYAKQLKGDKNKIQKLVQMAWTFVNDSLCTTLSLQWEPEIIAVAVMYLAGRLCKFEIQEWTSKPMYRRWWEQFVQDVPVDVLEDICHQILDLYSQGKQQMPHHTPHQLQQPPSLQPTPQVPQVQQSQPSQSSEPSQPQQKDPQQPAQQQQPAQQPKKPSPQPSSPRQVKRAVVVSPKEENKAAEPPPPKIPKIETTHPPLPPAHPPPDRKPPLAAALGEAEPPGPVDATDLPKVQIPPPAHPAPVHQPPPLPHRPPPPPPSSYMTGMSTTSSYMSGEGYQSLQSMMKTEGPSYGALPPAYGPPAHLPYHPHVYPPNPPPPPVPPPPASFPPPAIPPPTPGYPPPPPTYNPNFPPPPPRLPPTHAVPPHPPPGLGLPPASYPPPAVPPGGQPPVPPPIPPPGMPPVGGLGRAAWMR
Procedure, shortened: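 CDK12 (aa686-1082)/cyclinK complex at 50 nM was pre-incubated with compound for 10 min, then reacted 180 min at 27° C with ATP and 2 μM 5-FAM-CDK9tide in pH 6.5 MES buffer with 10 mM MgCl2. Reactions were EDTA-quenched and product resolved electrophoretically; IC50 from nonlinear curve fit.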

[3] = test system: human breast cancer cells HCC70; assay: Cell biological activity detection (CyQuant, 72 hours), HCC70; assay type: cell-based; settings: incubation for 72 hours
Description: (§1) A2780 and HCC70 cells were subjected to trypsin digestion treatment, and cell suspensions were respectively transferred to 15 mL centrifuge tubes and centrifuged for 5 min at […]) rpm; supernatant was discarded, and resuspension was carried out in a fresh medium (RPMI 1640+10% FBS), after counting, cells were seeded into a 384-well plate at 2000/well (50 μL of 1640+10% FBS medium was added to the 2nd column and the 23rd column of the 384-well plate, and 50 μL of DPBS was added to the surrounding wells). Incubation was carried out overnight in an incubator (37° C., 5% CO2).
(§2) The compound was added to the well plates the next day. The compound had the highest concentration of 10 μM and was diluted at 1:4, and there were a total of 9 concentrations; and a positive compound Paclitaxel had the highest concentration of 1 μM and was diluted at 1:3, and there were a total of 9 concentrations. The DMSO content in each well was unified to 0.2%. The cell plates were centrifuged for 30 seconds at 800 rpm and placed in an incubator (37° C., 5% CO2) for incubation for 72 hours. On the fourth day, a Cyquant reagent (3×) was formulated according to kit instructions, and formulation was carried out for each 384-well plate according to the following proportions: DPBS 11.568 mL, CyQuant®? Direct nucleic acid stain 72 μL, and CyQuant® Direct background suppressor 360 μL. After uniform mixing, the reagent was placed at room temperature for further use. The cell plates were taken out and equilibrated for 30 min at room temperature, and 25 μL of the Cyquant reagent (3×) per well was dispensed into the cells of the 384-well plates by Multi-drop, and incubation was carried out for more than 60 minutes at 37° C. Acumen plate reading (Acumen setting: an excitation wavelength of 488 nm). IC50 results were analyzed by XLFIT5 from IDBS Company.

ovarian cancer A2780 = assay: Cell biological activity detection (CyQuant, 72 hours), A2780; assay type: cell-based, human; settings: A2780 cells, incubation for 72 hours
Description: as §1, §2

Chain of CDK7/cyclinH/MAT1 complex (P50613 whole entry, species assumed): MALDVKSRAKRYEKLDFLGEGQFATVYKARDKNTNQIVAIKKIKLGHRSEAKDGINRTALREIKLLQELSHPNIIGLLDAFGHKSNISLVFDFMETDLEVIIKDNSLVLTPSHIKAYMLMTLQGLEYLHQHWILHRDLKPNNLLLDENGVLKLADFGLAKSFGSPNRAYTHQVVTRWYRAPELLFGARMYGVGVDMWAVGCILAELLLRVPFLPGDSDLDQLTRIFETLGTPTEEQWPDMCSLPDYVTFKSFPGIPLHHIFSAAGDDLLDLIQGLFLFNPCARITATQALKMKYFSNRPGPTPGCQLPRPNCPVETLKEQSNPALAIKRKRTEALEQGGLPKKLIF
Chain of CDK7/cyclinH/MAT1 complex (P51946 whole entry partner, species assumed): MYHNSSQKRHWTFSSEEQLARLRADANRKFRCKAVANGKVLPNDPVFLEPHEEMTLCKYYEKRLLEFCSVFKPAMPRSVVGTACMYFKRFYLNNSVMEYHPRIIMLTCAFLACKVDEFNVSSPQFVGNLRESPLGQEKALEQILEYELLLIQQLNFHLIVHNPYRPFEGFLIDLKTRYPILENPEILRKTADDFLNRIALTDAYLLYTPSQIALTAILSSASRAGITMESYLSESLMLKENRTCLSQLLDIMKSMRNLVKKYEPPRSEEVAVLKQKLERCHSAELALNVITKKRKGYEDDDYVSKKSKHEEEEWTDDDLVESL
Chain of CDK7/cyclinH/MAT1 complex (P51948 whole entry partner, species assumed): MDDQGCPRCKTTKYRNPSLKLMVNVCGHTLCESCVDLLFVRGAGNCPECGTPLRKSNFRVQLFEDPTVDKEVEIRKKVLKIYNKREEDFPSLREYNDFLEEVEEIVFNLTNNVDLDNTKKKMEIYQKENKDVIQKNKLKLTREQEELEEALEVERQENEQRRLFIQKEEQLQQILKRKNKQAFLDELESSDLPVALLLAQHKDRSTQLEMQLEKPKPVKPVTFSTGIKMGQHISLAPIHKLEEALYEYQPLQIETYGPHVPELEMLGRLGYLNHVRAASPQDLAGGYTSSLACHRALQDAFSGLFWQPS

| Compound | IC50 [1] | IC50 (CDK2/cyclinE1 complex) | IC50 (CDK9/cyclinT1 complex) | IC50 [2] | IC50 ([3]; Homo sapiens, HCC70, 72 h) | IC50 (ovarian cancer A2780) | IC50 [3] | IC50 (ovarian cancer A2780; Homo sapiens, A2780, 72 h) |
| --- | --- | --- | --- | --- | --- | --- | --- | --- |
| CP(C)(=O)c1cccc2c(-c3nc(NCC(O)C(F)F)ncc3C(F)(F)F)c[nH]c12 (single isomer, unassigned) [Compound 124] | < 20 nM | 5000 to 50000 nM | > 50000 nM | > 50000 nM | 20 to 200 nM | 20 to 200 nM | – | – |
| CP(C)(=O)c1cccc2c(-c3nc(NC4CC45CCNC5)ncc3C(F)(F)F)c[nH]c12 (single isomer, unassigned) [Compound 109] | 20 to 200 nM | 5000 to 50000 nM | > 50000 nM | > 50000 nM | – | 20 to 200 nM | 20 to 200 nM | – |
| CC(C)(O)CNc1ncc(C(F)(F)F)c(-c2c[nH]c3c(P(C)(C)=O)cccc23)n1 [Compound 95, (3-(2-((2-hydroxy-2-methylpropyl)amino)-5-(trifluoromethyl)pyrimidin-4-yl)-1H-indole-7-yl)dimethylphosphine oxide] | < 20 nM | 5000 to 50000 nM | > 50000 nM | > 50000 nM | 20 to 200 nM | – | – | 20 to 200 nM |
| FC(F)(F)c1cnc(NC2CCCC3(CCNCC3)C2)nc1-c1c[nH]c2nc(N3CCOCC3)ccc12 (stereo not drawn) [Compound 41, N-(4-(6-morpholinyl-1H-pyrrolo[2,3-b]pyridin-3-yl)-5-(trifluoromethyl)pyrimidin-2-yl)-3-azaspiro[5.5]undecan-8-amine] | 20 to 200 nM | 5000 to 50000 nM | 5000 to 50000 nM | 5000 to 50000 nM | 200 to 5000 nM | – | – | 20 to 200 nM |
| CC1(C)COCC(Nc2ncc(C(F)(F)F)c(-c3c[nH]c4nc(C#N)ccc34)n2)CN1 (single isomer, unassigned) [Compound 63] | 20 to 200 nM | > 50000 nM | > 50000 nM | 5000 to 50000 nM | 200 to 5000 nM | – | – | 200 to 5000 nM |
| C[C@H](O)CNc1ncc(C(F)(F)F)c(-c2c[nH]c3c(P(C)(C)=O)cccc23)n1 [Compound 173, (S)-(3-(2-((2-hydroxypropyl)amino)-5-(trifluoromethyl)pyrimidin-4-yl)-1H-indole-7-yl)dimethylphosphine oxide] | < 20 nM | 5000 to 50000 nM | > 50000 nM | > 50000 nM | 20 to 200 nM | – | – | 20 to 200 nM |
| CP(C)(=O)c1cccc2c(-c3nc(NCC(O)C(F)F)ncc3C(F)(F)F)c[nH]c12 (single isomer, unassigned) [Compound 125] | 20 to 200 nM | 5000 to 50000 nM | > 50000 nM | > 50000 nM | – | 200 to 5000 nM | 20 to 200 nM | – |
| C[C@H]1COCCN1c1ccc2c(-c3nc(N[C@@H]4CCC45CNC5)ncc3C(F)(F)F)c[nH]c2n1 [Compound 67, (R)—N-(4-(6-((S)-3-methylmorpholine)-1H-pyrrolo[2,3-b]pyridin-3-yl)-5-(trifluoromethyl)pyrimidin-2-yl)-2-azaspiro[3.3]heptan-5-amine] | < 20 nM | 5000 to 50000 nM | 5000 to 50000 nM | 5000 to 50000 nM | 20 to 200 nM | – | – | 20 to 200 nM |
| C[C@@H](CO)Nc1ncc(C(F)(F)F)c(-c2c[nH]c3nc(C4=CCOCC4)ccc23)n1 [Compound 181, (S)-2-((4-(6-(3,6-dihydro-2H-pyran-4-yl)-1H-pyrrolo[2,3-b]pyridin-3-yl)-5-(trifluoromethyl)pyrimidin-2-yl)amino)propan-1-ol] | 20 to 200 nM | 200 to 5000 nM | > 50000 nM | 5000 to 50000 nM | 200 to 5000 nM | – | – | 20 to 200 nM |
| C[C@@H](CO)Nc1ncc(Br)c(-c2c[nH]c3c(P(C)(C)=O)cccc23)n1 [Compound 177, (S)-(3-(5-bromo-2-((1-hydroxypropan-2-yl)amino)pyrimidin-4-yl)-1H-indole-7-yl)dimethylphosphine oxide] | < 20 nM | 200 to 5000 nM | 5000 to 50000 nM | 5000 to 50000 nM | < 20 nM | – | – | < 20 nM |
| CP(C)(=O)c1cccc2c(-c3nc(NCC(O)C(F)(F)F)ncc3C(F)(F)F)c[nH]c12 (stereo not drawn) [Compound 145, Dimethyl(3-(2-((3,3,3-trifluoro-2-hydroxypropyl)amino)-5-(trifluoromethyl)pyrimidin-4-yl)-1H-indole-7-yl)phosphine oxide] | 20 to 200 nM | > 50000 nM | > 50000 nM | > 50000 nM | 20 to 200 nM | – | – | 20 to 200 nM |
| Cc1cnc(N[C@@H](C)CO)nc1-c1c[nH]c2c(P(C)(C)=O)cccc12 [Compound 178] | 20 to 200 nM | 5000 to 50000 nM | > 50000 nM | > 50000 nM | 200 to 5000 nM | – | – | 20 to 200 nM |
| CN(C)CC1CCCC1Nc1ncc(C(F)(F)F)c(-c2c[nH]c3c(P(C)(C)=O)cccc23)n1 (single isomer, unassigned) [Compound 135] | < 20 nM | 200 to 5000 nM | 5000 to 50000 nM | 200 to 5000 nM | < 20 nM | – | – | < 20 nM |
| CP(C)(=O)c1c(C#N)ccc2c(-c3nc(N[C@H]4CC[C@H](N)C4)ncc3C(F)(F)F)c[nH]c12 [Compound 78, 3-(2-(((1S,3S)-3-aminocyclopentyl)amino)-5-(trifluoromethyl)pyrimidin-4-yl)-7-(dimethylphosphoryl)-1H-indole-6-carbonitrile] | < 20 nM | 5000 to 50000 nM | 5000 to 50000 nM | 5000 to 50000 nM | < 20 nM | – | – | < 20 nM |
| CP(C)(=O)c1cccc2c(-c3nc(NC[C@H]4C[C@H]4CO)ncc3C(F)(F)F)c[nH]c12 [Compound 141, (3-(2-((((1S,2R)-2-(hydroxymethyl)cyclopropyl)methyl)amino)-5-(trifluoromethyl)pyrimidin-4-yl)-1H-indole-7-yl)dimethylphosphine oxide] | < 20 nM | 200 to 5000 nM | > 50000 nM | > 50000 nM | 20 to 200 nM | – | – | 20 to 200 nM |
| CP(C)(=O)c1cccc2c(-c3nc(N[C@@H](CO)C4CC4)ncc3C(F)(F)F)c[nH]c12 [Compound 159, (R)-(3-(2-((1-cyclopropyl-2-hydroxyethyl)amino)-5-(trifluoromethyl)pyrimidin-4-yl)-1H-indole-7-yl)dimethylphosphine oxide] | < 20 nM | 5000 to 50000 nM | > 50000 nM | > 50000 nM | 20 to 200 nM | – | – | 20 to 200 nM |
